Assay results as given in patent publication US4442090A, “Absorption-promoting compounds, compositions thereof with pharmaceuticals and/or bases for rectal administration and method of use” (Kyoto Yakuhin Kogyo Kabushiki Kaisha, priority 1980, dated 1984).
Each block holds one compound with its values, some of them ahead of it.

Tests used:
[1] = Urinary excretions of AB-PC after administration of AB-PC rectal suppository (human); format: in vivo; settings: AB-PC 125 mg (potency); for Urinary excretions of AB-PC (%) (0-6 hr.): added compound 10%, Witepsol H-15, % of dose
Method: The thus-obtained suppositories were administered to healthy adult male humans from the anus, and the urinary excretions of AB-PC were determined.

[2] = Urinary excretions of β-lactam antibiotics after rectal suppository (rabbit); format: in vivo; settings: Compound (I) 5%, Witepsol H-15
Method: The absorption into the circulation through the rectum of the rectal suppositories thus prepared was determined by measuring urinary excretion of the pharmacologically-active substance.
Thus, Sarcina lutea and Bacillus subtilis were used as assay organisms for penicillins and cephalosporins, respectively, and the assays were performed by the paper disk method (cultivation at 37° C. for from 15 to 20 hours).

[3] = Compound (I) 10%, Witepsol H-15, Table 3

Structure (SMILES): CC(=O)O [Acetic acid Na, Acetic acid, reference compound]
- Urinary excretions of AB-PC (%) (0-6 hr.) [1]: 3.6%

Structure (SMILES): c1ccc2nc3ccccc3cc2c1 [Acridine, reference compound]
- Urinary excretions of AB-PC (%) (0-6 hr.) [1]: 2.1%

Structure (SMILES): c1ccc2occc2c1 [Benzofurane, reference compound]
- Urinary excretions of AB-PC (%) (0-6 hr.) [1]: 1.9%

Structure (SMILES): O=C(O)c1ccccc1 [Benzoic acid Na, Benzoic acid, reference compound]
- Urinary excretions of AB-PC (%) (0-6 hr.) [1]: 5.6%

Structure (SMILES): O=C(O)CCCCCCCCCC(=O)O [Compound 1-Na, 1,9-Nonamethylendicarboxylic acid]
- Urinary excretions of AB-PC (%) (0-6 hr.) [1]: 15.2%
- Urinary excretions (%) 0-2 hr. ([2]; Cephalothin 125 mg (potency)): 20.5%
- Urinary excretions (%) 2-4 hr. ([2]; Cephalothin 125 mg (potency)): 3.0%
- Urinary excretions (%) 4-6 hr. ([2]; Cephalothin 125 mg (potency)): 0.2%
- Urinary excretions (%) Total (0-6 hr.) ([2]; Cephalothin 125 mg (potency)): 23.7%

Structure (SMILES): CCCCc1ccc(C(=O)O)cc1 [Compound 4-Na, p-Butylbenzoic acid]
- Urinary excretions of AB-PC (%) (0-6 hr.) [1]: 28.6%
- Urinary excretions (%) 0-2 hr. ([2]; Cefsulodin 125 mg (potency)): 30.5%
- Urinary excretions (%) 2-4 hr. ([2]; Cefsulodin 125 mg (potency)): 15.0%
- Urinary excretions (%) 4-6 hr. ([2]; Cefsulodin 125 mg (potency)): 1.1%
- Urinary excretions (%) Total (0-6 hr.) ([2]; Cefsulodin 125 mg (potency)): 45.6%

Structure (SMILES): CCCCCCOc1ccc(C(=O)O)cc1 [Compound 6-Na, p-Hexyloxybenzoic acid]
- Urinary excretions of AB-PC (%) (0-6 hr.) [1]: 21.2%
- Urinary excretions (%) 0-2 hr. ([2]; SCE-1365 125 mg (potency)): 45.0%
- Urinary excretions (%) 2-4 hr. ([2]; SCE-1365 125 mg (potency)): 18.2%
- Urinary excretions (%) 4-6 hr. ([2]; SCE-1365 125 mg (potency)): 1.8%
- Urinary excretions (%) Total (0-6 hr.) ([2]; SCE-1365 125 mg (potency)): 65.0%

Structure (SMILES): O=C(O)CCCCCCCCCCCCC(=O)O [Compound 7-Na, 1,12-Dodecamethylene dicarboxylic acid]
- Urinary excretions of AB-PC (%) (0-6 hr.) [1]: 22.6%
- Urinary excretions (%) 0-2 hr. ([2]; 6059-S 125 mg (potency)): 42.2%
- Urinary excretions (%) 2-4 hr. ([2]; 6059-S 125 mg (potency)): 8.8%
- Urinary excretions (%) 4-6 hr. ([2]; 6059-S 125 mg (potency)): 1.0%
- Urinary excretions (%) Total (0-6 hr.) ([2]; 6059-S 125 mg (potency)): 52.0%

Structure (SMILES): O=C(O)COc1cccc2ccccc12 [Compound 8-Na, α-Napthoxacetic acid]
- Urinary excretions of AB-PC (%) (0-6 hr.) [1]: 15.1%

Structure (SMILES): CCCCCCCCCCCC(=O)N(C)CC(=O)O [Compound 10-Na, N--Lauroylsarcosine]
- Urinary excretions (%) 0-2 hr. ([2]; Sulbenicillin 125 mg (potency)): 33.5%
- Urinary excretions (%) 2-4 hr. ([2]; Sulbenicillin 125 mg (potency)): 10.0%
- Urinary excretions (%) 4-6 hr. ([2]; Sulbenicillin 125 mg (potency)): 1.0%
- Urinary excretions (%) Total (0-6 hr.) ([2]; Sulbenicillin 125 mg (potency)): 43.5%

Structure (SMILES): CC1CCC(C(C)C)C(OCC(=O)O)C1 [Compound 11-Na, L-Menthoxyacetic acid]
- Urinary excretions of AB-PC (%) (0-6 hr.) [1]: 20.0%

Structure (SMILES): CCCCCCCCCCNC(=O)CCC(=O)O [Compound 12-Na, N--(n-Decyl)succinamic acid]
- Urinary excretions (%) 0-2 hr. ([2]; FK-749 125 mg (potency)): 40.1%
- Urinary excretions (%) 2-4 hr. ([2]; FK-749 125 mg (potency)): 18.0%
- Urinary excretions (%) 4-6 hr. ([2]; FK-749 125 mg (potency)): 2.0%
- Urinary excretions (%) Total (0-6 hr.) ([2]; FK-749 125 mg (potency)): 60.1%

Structure (SMILES): CCCCOc1ccc(C(=O)N[C@@H](Cc2ccccc2)C(=O)O)cc1 [Compound 20-Na, N--(4-Butoxybenzoyl)phenylalanine]
- Urinary excretions (%) 0-2 hr. ([2]; 6059-S 125 mg (potency)): 46.0%
- Urinary excretions (%) 2-4 hr. ([2]; 6059-S 125 mg (potency)): 15.2%
- Urinary excretions (%) 4-6 hr. ([2]; 6059-S 125 mg (potency)): 4.1%
- Urinary excretions (%) Total (0-6 hr.) ([2]; 6059-S 125 mg (potency)): 65.3%

Structure (SMILES): Nc1ccc(C(=O)O)cc1 [P--Aminobenzoic acid Na, P--Aminobenzoic acid, reference compound]
- Urinary excretions of AB-PC (%) (0-6 hr.) [1]: 4.9%

Structure (SMILES): O=C(O)Cc1ccccc1 [Phenylacetic acid Na, Phenylacetic acid, reference compound]
- Urinary excretions of AB-PC (%) (0-6 hr.) [1]: 5.8%

The next lines start with the values.

- Urinary excretions (%) 0-2 hr. ([2]; FK-749 125 mg (potency)): 39.1%
- Urinary excretions (%) 2-4 hr. ([2]; FK-749 125 mg (potency)): 18.0%
- Urinary excretions (%) 4-6 hr. ([2]; FK-749 125 mg (potency)): 2.1%
- Urinary excretions (%) Total (0-6 hr.) ([2]; FK-749 125 mg (potency)): 59.2%
Structure (SMILES): CCCCCCCCCCNC(=O)/C=C\C(=O)O [Compound 13-Na, N--(n-Decyl)maleamic acid]

- Urinary excretions (%) 0-2 hr. ([2]; FK-749 125 mg (potency)): 41.2%
- Urinary excretions (%) 2-4 hr. ([2]; FK-749 125 mg (potency)): 19.0%
- Urinary excretions (%) 4-6 hr. ([2]; FK-749 125 mg (potency)): 1.8%
- Urinary excretions (%) Total (0-6 hr.) ([2]; FK-749 125 mg (potency)): 62.0%
Structure (SMILES): CCCCCCCCNC(=O)c1ccccc1C(=O)O [Compound 14-Na, 2-Carboxy-N--(n-octyl)benzamide]

- Urinary excretions (%) 0-2 hr. ([2]; Cefmetazole 125 mg (potency)): 44.0%
- Urinary excretions (%) 2-4 hr. ([2]; Cefmetazole 125 mg (potency)): 20.0%
- Urinary excretions (%) 4-6 hr. ([2]; Cefmetazole 125 mg (potency)): 1.0%
- Urinary excretions (%) Total (0-6 hr.) ([2]; Cefmetazole 125 mg (potency)): 65.9%
Structure (SMILES): CCCCN(CCCC)C(=O)CCC(=O)O [Compound 15-Na, N,N--Di-(n-butyl)succinamic acid]

- Urinary excretions (%) 0-2 hr. ([2]; Cefmetazole 125 mg (potency)): 43.1%
- Urinary excretions (%) 2-4 hr. ([2]; Cefmetazole 125 mg (potency)): 19.9%
- Urinary excretions (%) 4-6 hr. ([2]; Cefmetazole 125 mg (potency)): 2.9%
- Urinary excretions (%) Total (0-6 hr.) ([2]; Cefmetazole 125 mg (potency)): 69.1%
Structure (SMILES): CCCCCCCCCC(=O)NCCC(=O)O [Compound 16-Na, N--(n-Caprinoyl)-β-alanine]

- Urinary excretions (%) 0-2 hr. ([2]; Cefmetazole 125 mg (potency)): 45.0%
- Urinary excretions (%) 2-4 hr. ([2]; Cefmetazole 125 mg (potency)): 21.1%
- Urinary excretions (%) 4-6 hr. ([2]; Cefmetazole 125 mg (potency)): 3.0%
- Urinary excretions (%) Total (0-6 hr.) ([2]; Cefmetazole 125 mg (potency)): 64.6%
Structure (SMILES): CCCCCCCC(=O)Nc1ccc(C(=O)O)cc1 [Compound 17-Na, N--(n-Caprylyl)-4-aminobenzoic acid]

- Urinary excretions (%) 0-2 hr. ([2]; 6059-S 125 mg (potency)): 42.2%
- Urinary excretions (%) 2-4 hr. ([2]; 6059-S 125 mg (potency)): 18.8%
- Urinary excretions (%) 4-6 hr. ([2]; 6059-S 125 mg (potency)): 3.6%
- Urinary excretions (%) Total (0-6 hr.) ([2]; 6059-S 125 mg (potency)): 64.6%
Structure (SMILES): CCCCCCCC(=O)N(C)c1ccc(C(=O)O)cc1 [Compound 18-Na, N--(n-Caprylyl)-4-methylaminobenzoic acid]

- Urinary excretions (%) 0-2 hr. ([2]; 6059-S 125 mg (potency)): 38.0%
- Urinary excretions (%) 2-4 hr. ([2]; 6059-S 125 mg (potency)): 20.0%
- Urinary excretions (%) 4-6 hr. ([2]; 6059-S 125 mg (potency)): 3.1%
- Urinary excretions (%) Total (0-6 hr.) ([2]; 6059-S 125 mg (potency)): 61.1%
Structure (SMILES): O=C(N[C@@H](Cc1ccccc1)C(=O)O)c1ccccc1O [Compound 19-Na, N--(2-Hydroxybenzoyl)phenylalanine]

- Urinary excretions (%) 0-2 (hr.) [1, 3]: 16.8%
- Urinary excretions (%) 2-4 (hr.) [1, 3]: 2.0%
- Urinary excretions (%) 4-6 (hr.) [1, 3]: 1.1%
- Urinary excretions (%) Total (0-6 hr.) [1, 3]: 19.9%
Structure (SMILES): CCCCCC(=O)N[C@@H](Cc1ccccc1)C(=O)O [Compound 21-Na, N--Caproyl-L-phenylalanine]

- Urinary excretions (%) 0-2 hr. ([2]; Cefazolin 125 mg (potency)): 40.5%
- Urinary excretions (%) 2-4 hr. ([2]; Cefazolin 125 mg (potency)): 16.0%
- Urinary excretions (%) 4-6 hr. ([2]; Cefazolin 125 mg (potency)): 2.0%
- Urinary excretions (%) Total (0-6 hr.) ([2]; Cefazolin 125 mg (potency)): 58.5%
- Urinary excretions (%) 0-2 hr. ([2]; Cephalothin 125 mg (potency)): 19.5%
- Urinary excretions (%) 2-4 hr. ([2]; Cephalothin 125 mg (potency)): 2.5%
- Urinary excretions (%) 4-6 hr. ([2]; Cephalothin 125 mg (potency)): 0.2%
- Urinary excretions (%) Total (0-6 hr.) ([2]; Cephalothin 125 mg (potency)): 22.2%
Structure (SMILES): CCCCCC(=O)N[C@@H](Cc1c[nH]c2ccccc12)C(=O)O [Compound 22-Na, N--Caproyl-L-tryptophan]

- Urinary excretions (%) 0-2 hr. ([2]; Cefmetazole 125 mg (potency)): 45.0%
- Urinary excretions (%) 2-4 hr. ([2]; Cefmetazole 125 mg (potency)): 10.0%
- Urinary excretions (%) 4-6 hr. ([2]; Cefmetazole 125 mg (potency)): 2.0%
- Urinary excretions (%) Total (0-6 hr.) ([2]; Cefmetazole 125 mg (potency)): 57.0%
Structure (SMILES): CCCCCCCCCCCC(=O)N[C@H](C(=O)O)C(C)C [Compound 25-Na, N--Lauroyl-L-valine]

- Urinary excretions of AB-PC (%) (0-6 hr.) [1]: 3.0%
Structure (SMILES): CCCCCCCCCC(=O)OCC [Ethyl caprate, reference compound]

- Urinary excretions of AB-PC (%) (0-6 hr.) [1]: 2.9%
Structure (SMILES): CCCCCCCC(=O)OCC [Ethyl caprylate, reference compound]

- Urinary excretions of AB-PC (%) (0-6 hr.) [1]: 2.5%
Structure (SMILES): CC(=O)NCC(=O)[O-].[Na+] [N--Acetylglycine Na, N--Acetylglycine, reference compound]

- Urinary excretions of AB-PC (%) (0-6 hr.) [1]: 6.0%
Structure (SMILES): O=C(O)CCCCCC(=O)O [Pimelic acid Na, Pimelic acid, reference compound]

- Urinary excretions of AB-PC (%) (0-6 hr.) [1]: 9.6%
Structure (SMILES): O=C(O)c1ccccc1O [Salicylic acid Na, Salicylic acid, reference compound]
